Results from PubChem BioAssay (NCI).
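Compound exposure: 48 hours, 5 concentrations, 96-well plates. TGI: total growth inhibition.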

Key:
Experiment in all cases: NCI anticancer screen, dose series, 48 h
A498 renal = test system: A498 renal
DU-145 prostate = test system: DU-145 prostate
HCC-2998 colon = test system: HCC-2998 colon
HCT-15 colon = test system: HCT-15 colon
HOP-62 NSCLC = test system: HOP-62 NSCLC
HT29 colon = test system: HT29 colon
KM12 colon = test system: KM12 colon
M14 melanoma = test system: M14 melanoma
MDA-N = test system: MDA-N
OVCAR-3 ovarian = test system: OVCAR-3 ovarian
PC-3 prostate = test system: PC-3 prostate
SN12C renal = test system: SN12C renal
U251 CNS = test system: U251 CNS

SMILES: COc1ccc2c(ccc3c(C(=O)NCCN(C)CCNC(=O)c4cn(C)c5c4ccc4cc(OC)ccc45)cn(C)c32)c1
- TGI (A498 renal): > 100000 nM
- TGI (DU-145 prostate): 3320 nM
- TGI (HCC-2998 colon): 2790 nM
- TGI (HCT-15 colon): 2520 nM
- TGI (HOP-62 NSCLC): 2750 nM
- TGI (HT29 colon): 2700 nM
- TGI (KM12 colon): 3020 nM
- TGI (M14 melanoma): 3000 nM
- TGI (MDA-N): 2910 nM
- TGI (OVCAR-3 ovarian): 2830 nM
- TGI (PC-3 prostate): 2840 nM
- TGI (SN12C renal): 2820 nM
- TGI (U251 CNS): > 100000 nM
